“And” between values parts separate entries of the source, which are not always exact repeats. Equal entries are not always repeated.
Assays:
Assay type in all cases: cell-based, human
MDA-MB-231 cells = assay: Antiproliferation assay (cell counting, 48 h) in MDA-MB-231 breast cancer cells; details: for Selectivity Index for MDA-MB-231: FB IC50 relative to MDA-MB-231 IC50; for IC50: MDA-MB-231 cells, 48 h incubation, cell counting
From the text: (§1) Regarding the different characteristics of the used breast cancer cell lines, we can notice that MDA-MB-231 and Hs578T are triple negative.
(§2) Primary skin normal fibroblasts were kindly provided by Prof. Emer.

MCF-7 cells = assay: Antiproliferation assay (cell counting, 48 h) in MCF-7 breast cancer cells; details: for Selectivity Index for MCF-7: FB IC50 relative to MCF-7 IC50; for IC50: MCF-7 cells, 48 h incubation, cell counting
From the text: as §1, §2

[1] = test system: normal primary fibroblasts (FB); assay: cells; details: for IC50: normal primary human fibroblasts, 48 h incubation, cell counting
From the text: as §2

Hs578T cells = assay: Antiproliferation assay (cell counting, 48 h) in Hs578T breast cancer cells; details: for Selectivity Index for Hs578T: FB IC50 relative to Hs578T IC50; for IC50: Hs578T cells, 48 h incubation, cell counting
From the text: as §1, §2

Compound	Selectivity Index for MDA-MB-231 (MDA-MB-231 cells)	IC50 (MDA-MB-231 cells; Homo sapiens) [µM]	Selectivity Index for MCF-7 (MCF-7 cells)	IC50 (MCF-7 cells; Homo sapiens, MCF7) [µM]	IC50 ([1]; Fibroblast) [µM]	Selectivity Index for Hs578T (Hs578T cells)	IC50 (Hs578T cells; Homo sapiens, Hs-578T) [µM]	times less toxic than 5-FU [1] [times]	IC50 (MDA-MB-231 cells) [µM]	IC50 (MCF-7 cells) [µM]	IC50 (Hs578T cells) [µM]	IC50 [1] [µM]
O=c1[nH]cc(F)c(=O)[nH]1 [Compound 5-FU, 5-fluorouracil, reference compound]	0.49	19.2 ± 0.39	1.76	5.37 ± 1.16	9.43 ± 0.8	1.28	7.38 ± 2.49	–	–	–	–	–
COC(=O)[C@]1(C)CCC[C@]2(C)c3cc(O)c(C(C)=O)cc3CCC12 (stereo partly drawn) [Compound 28]	–	115 ± 40.1	–	207 ± 7.28	–	–	136 ± 2.47	–	–	–	–	–
COC(=O)[C@]1(C)CCC[C@]2(C)c3cc(OC)c(C(=O)/C=C/c4cccnc4)cc3CCC12 (stereo partly drawn) [Compound 32, (1R,4aS)-methyl 6-methoxy-1,4a-dimethyl-7-((E)-3-(pyridin-3-yl)acryloyl)-1,2,3,4,4a, 9,10,10a-octahydrophenanthrene-1-carboxylate]	–	> 75	–	> 75	–	–	> 75	–	–	–	–	–
COC(=O)[C@]1(C)CCC[C@]2(C)c3cc(O)c(C(=O)/C=C/c4ccncc4)cc3CCC12 (stereo partly drawn) [Compound 35, (1R,4aS)-methyl 6-hydroxy-1,4a-dimethyl-7-((E)-3-(pyridin-4-yl)acryloyl)-1,2,3,4,4a, 9,10,10a-octahydrophenanthrene-1-carboxylate]	0.91	37.1 ± 1.82	3.42	9.9 ± 0.05	33.8 ± 6.63	3.89	8.69 ± 0.55	–	–	–	–	–
COC(=O)[C@]1(C)CCC[C@]2(C)c3cc(O)c(C(=O)/C=C/c4ccc5ccccc5n4)cc3CCC12 (stereo partly drawn) [Compound 38, (1R,4aS)-methyl 6-hydroxy-1,4a-dimethyl-7-((E)-3-(quinolin-2-yl)acryloyl)-1,2,3,4,4a, 9,10,10a-octahydrophenanthrene-1-carboxylate]	2.20	73 ± 2.31	22.7 and 22.75	7.06 ± 1.71	161 ± 13.1	–	> 75	12.9	–	–	–	–
COC(=O)[C@]1(C)CCC[C@]2(C)c3cc(O)c(C(=O)/C=C/c4cnc5ccccc5c4)cc3CCC12 (stereo partly drawn) [Compound 39, (1R,4aS)-methyl 6-hydroxy-1,4a-dimethyl-7-((E)-3-(quinolin-3-yl)acryloyl)-1,2,3,4,4a, 9,10,10a-octahydrophenanthrene-1-carboxylate]	–	> 75	2.86	11.5 ± 1.02	32.9 ± 2.27	2.09	15.7 ± 2.74	–	–	–	–	–
COC(=O)[C@]1(C)CCC[C@]2(C)c3cc(O)c(C(=O)/C=C/c4ccnc5ccccc45)cc3CCC12 (stereo partly drawn) [Compound 40, (1R,4aS)-methyl 6-hydroxy-1,4a-dimethyl-7-((E)-3-(quinolin-4-yl)acryloyl)-1,2,3,4,4a, 9,10,10a-octahydrophenanthrene-1-carboxylate]	–	> 75	–	> 75	92.1 ± 5.47	–	> 75	–	–	–	–	–
COC(=O)[C@]1(C)CCC[C@]2(C)c3cc(O)c(C(=O)/C=C/c4ccsc4)cc3CCC12 (stereo partly drawn) [Compound 44, (1R,4aS)-methyl 6-hydroxy-1,4a-dimethyl-7-((E)-3-(thiophen-3-yl)acryloyl)-1,2,3,4,4a,9,10,10a-octahydrophenanthrene-1-carboxylate]	1.75	25.2 ± 0.84	12.76	3.45 ± 0.36	44 ± 1.84	2.05	21.5 ± 1.2	–	–	–	–	–
COC(=O)[C@]1(C)CCC[C@]2(C)c3cc(O)c(C(=O)/C=C/c4ccc(Br)s4)cc3CCC12 (stereo partly drawn) [Compound 45, (1R,4aS)-methyl 7-((E)-3-(5-bromothiophen-2-yl)acryloyl)-6-hydroxy-1,4a-dimethyl-1,2,3,4,4a,9,10,10a-octahydrophenanthrene-1-carboxylate]	–	> 75	–	29.9 ± 5.26	–	–	> 75	–	–	–	–	–
COC(=O)[C@]1(C)CCC[C@]2(C)c3cc(O)c(C(=O)/C=C/c4c[nH]c5ccccc45)cc3CCC12 (stereo partly drawn) [Compound 46, (1R,4aS)-methyl 7-((E)-3-(1H-indol-3-yl)acryloyl)-6-hydroxy-1,4a-dimethyl-1,2,3,4,4a,9,10,10a-octahydrophenanthrene-1-carboxylate]	–	> 75	–	> 75	–	–	> 75	–	–	–	–	–
COC(=O)[C@]1(C)CCC[C@]2(C)c3cc(O)c(C(=O)/C=C/c4csc5ccccc45)cc3CCC12 (stereo partly drawn) [Compound 47, (1R,4aS)-methyl 7-((E)-3-(benzo[b]thiophen-3-yl)acryloyl)-6-hydroxy-1,4a-dimethyl-1,2,3,4,4a,9,10,10a-octahydrophenanthrene-1-carboxylate]	–	40.4 ± 0.67	–	12.5 ± 8.43	–	–	> 75	–	–	–	–	–
COC(=O)[C@]1(C)CCC[C@]2(C)c3cc(O)c(/C=C/C(=O)c4ccccn4)cc3CCC12 (stereo partly drawn) [Compound 49, (1R,4aS)-methyl 6-hydroxy-1,4a-dimethyl-7-((E)-3-oxo-3-(pyridin-2-yl)prop-1-en-1-yl)-1,2,3,4,4a,9,10,10a-octahydrophenanthrene-1-carboxylate]	1.06	22.4 ± 0.81	0.52	45.9 ± 1.52	23.8 ± 1.07	1.39	17.1 ± 2.13	–	–	–	–	–
COC(=O)[C@]1(C)CCC[C@]2(C)c3cc(O)c(/C=C/C(=O)c4cnccn4)cc3CCC12 (stereo partly drawn) [Compound 51, (1R,4aS)-methyl 6-hydroxy-1,4a-dimethyl-7-((E)-3-oxo-3-(pyrazin-2-yl)prop-1-en-1-yl)-1,2,3,4,4a,9,10,10a-octahydrophenanthrene-1-carboxylate]	1.14	18 ± 2.78	–	> 75	20.5 ± 2.46	0.88	23.11 ± 0.04	–	–	–	–	–
COC(=O)[C@]1(C)CCC[C@]2(C)c3cc(O)c(/C=C/C(=O)c4ccc(Br)s4)cc3CCC12 (stereo partly drawn) [Compound 53, (1R,4aS)-methyl 7-((E)-3-(5-bromothiophen-2-yl)-3-oxoprop-1-en-1-yl)-6-hydroxy-1,4a-dimthyl-1,2,3,4,4a,9,10,10a-octahydrophenanthrene-1-carboxylate]	–	17.1 ± 0.41	–	41.4 ± 1.74	–	–	28.4 ± 1.97	–	–	–	–	–
(1R,4aS)-6-hydroxy-1,4a-dimethyl-7-((E)-3-(naphthalen-2-yl)acryloyl)-1,2,3,4,4a,9,10, 10a-octahydrophenanthrene-1-carboxylic acid [Compound 37]	–	–	–	–	–	–	–	–	> 75	11.4 ± 1.55	> 75	–
(1R,4aS)-methyl 6-hydroxy-1,4a-dimethyl-7-((E)-3-(2,4,5-trifluorophenyl)acryloyl)-1,2,3,4,4a,9,10,10a-octahydrophenanthrene-1-carboxylate [Compound 36]	–	–	–	–	–	–	–	–	> 75	> 75	> 75	–
(1R,4aS)-methyl 6-hydroxy-1,4a-dimethyl-7-((E)-3-oxo-3-(pyridin-3-yl)prop-1-en-1-yl)-1,2,3,4,4a,9,10,10a-octahydrophenanthrene-1-carboxylate [Compound 50]	–	–	–	–	–	–	–	–	> 75	> 75	> 75	192 ± 51.4
(1R,4aS)-methyl 7-((E)-3-(1H-pyrrol-3-yl)acryloyl)-6-hydroxy-1,4a-dimethyl-1,2,3,4, 4a,9,10,10a-octahydrophenanthrene-1-carboxylate [Compound 43]	–	–	–	–	–	–	–	–	29.2 ± 3.26	4.29 ± 0.29	16.6 ± 2.83	33 ± 6.1
(1R,4aS)-methyl 7-((E)-3-(2-chloroquinolin-4-yl)acryloyl)-6-hydroxy-1,4a-dimethyl-1,2,3,4, 4a,9,10,10a-octahydrophenanthrene-1-carboxylate [Compound 41]	–	–	–	–	–	–	–	–	7.12 ± 0.2	3.99 ± 0.15	10.3 ± 0.25	7.96 ± 0.1
(1R,4aS)-methyl 7-((E)-3-(2-hydroxyphenyl)-3-oxoprop-1-en-1-yl)-6-methoxy-1,4a-dimethyl-1,2,3,4,4a,9,10,10a-octahydrophenanthrene-1-carboxylate [Compound 31]	–	–	–	–	–	–	–	–	> 75	23.9 ± 4.47	> 75	–
(1R,4aS)-methyl 7-((E)-3-(benzofuran-2-yl)acryloyl)-6-hydroxy-1,4a-dimethyl-1,2,3, 4,4a,9,10, 10a-octahydrophenanthrene-1-carboxylate [Compound 52]	–	–	–	–	–	–	–	–	> 75	> 75	60.2 ± 6.94	–
(E)-1-((4bS,8R)-3-hydroxy-8-methoxy-4b,8-dimethyl-4b,5,6,7,8,8a,9,10-octahydrophenanthren-2-yl)-3-(pyridin-2-yl)prop-2-en-1-one [Compound 34]	–	–	–	–	–	–	–	–	> 75	21.4 ± 0.6	28.1 ± 7.76	–
(E)-3-(furan-2-yl)-1-((4bS,8R)-3-hydroxy-8-methoxy-4b,8-dimethyl-4b,5,6,7,8,8a,9,10-octahydrophenanthren-2-yl)prop-2-en-1-one [Compound 42]	–	–	–	–	–	–	–	–	> 75	37 ± 6.89	43.3 ± 4.32	–
Tert-butyl 4-(4-((E)-3-((4bS,8R)-3-methoxy-8-(methoxycarbonyl)-4b,8-dimethyl-4b,5, 6,7,8,8a,9,10-octahydrophenanthren-2-yl)acryloyl)phenyl)piperazine-1-carboxylate [Compound 48]	–	–	–	–	–	–	–	–	> 75	25.62 ± 0.09	23.2 ± 2.5	–

Reference: paper PMC9181926, “Synthesis and Antiproliferative Activity of Novel Dehydroabietic Acid-Chalcone Hybrids” (Molecules, 2022)
